# Laboratory results taken from patent publication US8030293B2, “Methods of optimizing drug therapeutic efficacy for treatment of immune-mediated gastrointestinal disorders” (Hopital-Sainte-Justine, priority 1998, dated 2011).
# Read-outs that look alike come from different tables or passages of the source. Marks after values point to notes of the source that are not given here.
# Experiments:
# [1] = 6-MP metabolite levels by gender and age in pediatric IBD patients (Example III); type: in vivo, human; settings: for 6-TG level / 6-MMP level: TPMT wild type
# Description: These patients were wild type for TPMT. Patients were assessed based on gender and age as it relates to puberty. Puberty is established at 12 years of age in girls and 14 years of age in boys.
# [2] = 6-TG levels by TPMT genotype in IBD patients (Example IV); type: in vivo, human; settings: for mean 6-TG: in pmol/8×10^8 RBC
# Description: The genotype of TPMT was determined in IBD patients that were responders and non responders. Genotyping of TPMT was measured essentially as described previously (Baccichet et al., Leuk. Res. 21:817-823 (1997); Zietkiewicz et al., Gene 205:161-171 (1997)). […] All heterozygote patients were responders to 6-MP.
# [3] = erythrocytes
# Description: The 93 patients were pediatric patients, with 80 diagnosed as having CD, 8 diagnosed as having UC, and 5 diagnosed as having indeterminate colitis (CD or UC). All but 7 patients were given AZA. The dosages were converted to 6-MP equivalents using a factor of 2.07 as described in Example I. For some patients, two or more samples were obtained and analyzed. Response to 6-MP was defined by clinical remission (HBI<5, closed fistula) without corticosteroids. Disease activity and physical exam were ascertained at each clinic visit at which 6-MP metabolite levels were determined (clinical evaluation point). Hematological, pancreatic and hepatic laboratory parameters were evaluated simultaneously Erythrocyte 6-TG and 6-MMP concentrations (pmol/8×10^8 RBC) were measured by HPLC (Cuffari et al., supra, 1996a).
# The number of samples corresponds to the number of different samples obtained from the 93 patients.
# [4] = Erythrocyte 6-MP metabolite levels by reverse phase HPLC in IBD patients on 6-MP drug (Example I); settings: erythrocytes
# Description: Briefly, blood was sampled (n=89) prior to daily administration of 6-MP in 55 IBD patients (CD n=51, UC n=4) receiving 1-1.5 mg/kg/day over at least a 4 month period (≧4 mo.). When AZA was administered, a conversion factor of 2.07 was used to convert to the equivalent 6-MP dose. Twice as much AZA is administered relative to 6-MP to have an equivalent dose of 6-MP.
# Erythrocyte 6-TG, 6-MMP and 6-MP thiobases were measured (pmol/8×10^8 RBC) using reverse phase HPLC. Briefly, blood samples were collected in EDTA (ethylene diamine tetraacetic acid) as anticoagulant. Cells were centrifuged and washed three times with an equal volume of 0.9% saline. Washed packed cells were stored at −70° C. until analysis was performed.
# For acid hydrolysis, 500 μl deionized H2O, 50 μl thawed red blood cells, 40 μl of the appropriate standard or control, 500 μl 3.0 NH2SO4, and 300 μl 10 mM dithiothreitol (DTT) was added to an 8 ml glass screw cap tube. The capped tubes were placed in a heating block preheated to 100° C. and hydrolyzed. For 6-MMP, hydrolysis was carried out for 5 hours. For 6-MP and 6-TG, hydrolysis was carried out for 1 hour. After the incubation, tubes were cooled in a room temperature water bath. To tubes hydrolyzed for 5 hours (6-MMP), 400 μl 3.4 N NaOH and 1.0 ml 2 M Tris buffer, pH 9.0 was added. To tubes hydrolyzed for 1 hour (6-MP/6-TG), 450 μl 3.4 N NaOH and 500 μl 2M Tris base was added. A volume of 4 ml 0.03% phenylmercuric chloride in methylene chloride was added to each tube. The tubes were capped and lightly agitated on a bi-directional rotator (15 min for 6-MMP and 30 min for 6-MP/6-TG). The contents were transferred to a 15 ml polypropylene centrifuge tube and centrifuged at 3500 rpm for 3 min at 10° C. The aqueous phase (top layer) was discarded, and 3.0 ml of the organic phase (bottom layer) was transferred to a clean 15 ml polypropylene centrifuge tube. The analytes in the organic phase were back extracted by adding 225 μl 0.1 N HCl and lightly mixing on an orbital rotator for 5 min. Following vortexing for 30 seconds, the tubes were centrifuged at 3500 rpm for 3 min at 10° C.
# For 6-MMP analysis, 50 μl analyte was analyzed on a C18 reverse phase column with the mobile phase containing 1 mM DTT, 2.078% triethylamine and 4% methanol, adjusted to pH 3.2 with concentrated H3PO4. For 6-MP and 6-TG analysis, 100 μl analyte was analyzed on a C18 reverse phase column using 0.1 M H3PO4 and 1 mM DTT in H2O as the mobile phase.
# Clinical remission was defined as a Harvey Bradshaw Index <5 in those patients off corticosteroids or weaned to a level of prednisone ≦0.4 mg/kg/od (administered every other day). Treatment failures were defined as non-responders (HBI>5 or steroid dependence) or cessation of 6-MP due to side effects.
# [5] = human, in vivo
# Description: All but 7 patients were given AZA.
# Toxicity was measured essentially as described previously (Cuffari et al., supra; 1996a).
# [6] = Responsiveness to 6-MP drug therapy by TPMT genotype in IBD patients (Example IV); type: in vivo, human
# Description: The genotype of TPMT was determined in IBD patients that were responders and non responders. Genotyping of TPMT was measured essentially as described previously (Baccichet et al., Leuk. Res. 21:817-823 (1997); Zietkiewicz et al., Gene 205:161-171 (1997)).
compound,measurement,setting,value
"Nc1nc2nc[nH]c2c(=S)[nH]1 [6-TG, 6-thioguanine]",6-TG level,"[1]; Boys (0-14 y), 51 observed",235.0 pmol per 8 × 10^8 RBC
same,6-TG level,"[1]; Boys (>14 y), 104 observed",222.5 pmol per 8 × 10^8 RBC
same,6-TG level,"[1]; Girls (0-12 y), 39 observed",182.2 pmol per 8 × 10^8 RBC
same,6-TG level,"[1]; Girls (>12 y), 116 observed",217.2 pmol per 8 × 10^8 RBC
same,mean 6-TG,"[2]; TPMT Heterozygote patients, p less than 0.0001",589*
same,mean 6-TG,[2]; TPMT Normal patients,247
same,6-TG levels of TPMT heterozygotes,[2]; all 8 heterozygotes,> 230 pmol/8×10^8 RBC
same,median 6-TG,"[3]; Relapse, n=72 samples",197 pmol/8×10^8 RBC
same,median 6-TG,"[3]; Remission, n=106 samples, p<0.0001",309* pmol/8×10^8 RBC
same,median 6-TG,"[4]; Hematologic toxicity group, n=6, p<0.03",414+ pmol per 8×10^8 RBC
same,median 6-TG,"[4]; Hepatic toxicity group, n=7",258 pmol per 8×10^8 RBC
same,median 6-TG,"[4]; Non-responders, n=31, p<0.001",184* pmol per 8×10^8 RBC
same,median 6-TG,"[4]; Pancreatic toxicity group, n=6",211 pmol per 8×10^8 RBC
same,median 6-TG,"[4]; Responders, n=58 samples, 6-MP 1-1.5 mg/kg/day ≥4 mo.",295 pmol per 8×10^8 RBC
"CSc1ncnc2nc[nH]c12 [6-MMP, 6-methyl-mercaptopurine]",6-MMP level associated with hepatotoxicity,[5],greater than 7000 pmol 6-MMP/8×10^8
same,Ratio 6-MMP/6-TG,[1]; Boys (0-14 y),17.24
same,6-MMP level,"[1]; Boys (0-14 y), 51 observed",3681.6 pmol per 8 × 10^8 RBC
same,6-MMP level,"[1]; Boys (>14 y), 104 observed, p<0.001",1662.3* pmol per 8 × 10^8 RBC
same,Ratio 6-MMP/6-TG,"[1]; Boys (>14 y), p<0.001",6.78*
same,Ratio 6-MMP/6-TG,[1]; Girls (0-12 y),18.52
same,6-MMP level,"[1]; Girls (0-12 y), 39 observed",3447.0 pmol per 8 × 10^8 RBC
same,Ratio 6-MMP/6-TG,[1]; Girls (>12 y),12.55
same,6-MMP level,"[1]; Girls (>12 y), 116 observed",3304.5 pmol per 8 × 10^8 RBC
same,Median 6-MMP,"[3]; Relapse, n=72 samples",1602 pmol/8×10^8 RBC
same,Median 6-MMP,"[3]; Remission, n=106 samples",2600 pmol/8×10^8 RBC
"Sc1ncnc2nc[nH]c12 [6-MP, 6-Mercaptopurine]",response of TPMT heterozygotes to 6-MP,[6]; 8 of 93 patients heterozygotes,All 8 heterozygotes responded
same,Non. responder,[6]; TPMT Heterozygote IBD patients,0%
same,Responder,[6]; TPMT Heterozygote IBD patients,100%
same,Non. responder,[6]; TPMT Normal IBD patients,45%
same,Responder,[6]; TPMT Normal IBD patients,55%
